Measurements taken from patent US8022072B2, “Azolylmethylidenehydrazine derivative and use thereof” (Kaken Pharmaceutical Co., Ltd., priority 2007, dated 2011).
Converted amounts (≈) assume the structure as drawn.

How the values were obtained:
Format in all cases: cell-based
[1] = test system: Trichophyton mentagrophytes KD-04; test: Antifungal activity evaluation test, MIC, Trichophyton mentagrophytes KD-04; settings: KD04, 168 h, Sabouraud Dextrose Broth, 30° C., 7 days, visual, read-out: MIC T. men. KD-04
Method: (§1) The minimum inhibitory concentration (MIC) for Trichophyton mentagrophytes, Trichophyton rubrum, and Malassezia furfur was measured according to the following procedure. • Test compound solution: A test compound was dissolved in dimethyl sulfoxide (DMSO) at a concentration of 5 mg/mL as a stock solution. […] Then, as a test medium, a fungal solution of Trichophyton species was 100-fold diluted with Sabouraud Dextrose Broth (Difco), and a fungal solution of Malassezia furfur IFO-0656 was 100-fold diluted with MU medium to give each inoculum (2×10^4 cells/mL). • Measurement of MIC of Trichophyton fungi: Sabouraud Dextrose Broth (Difco) was dispensed by 100 μL to a given well of a 96 well flat microplate. Then, a test compound solution (2 μL) was added, and the mixture was thoroughly mixed with a plate mixer. A fungal solution (100 μL) was inoculated and cultured at 30° C. for 7 days. The presence or absence of the cell growth was visually observed, and the minimum medicament concentration at which the cell growth was prevented was taken as MIC (μg/mL). • Measurement of MIC of Malassezia furfur: Since the urease activity of this fungus and the fungus growth rate are co-related, MIC was evaluated by the following method using urease activity as an index. MU medium was dispensed by 100 μL to a given well of a 96 well flat microplate. Then, a test compound solution (2 μL) was added, and the mixture was thoroughly mixed with a plate mixer. A fungal solution (100 μL) was inoculated and cultured at 30° C. The culture was stopped on day 4 or 5 of culture when the color tone of the MU medium changes from yellow to red in visual observation of the fungus growth in a well free of addition of a test substance. Then the plate was stirred until the fungus became uniform, and the urease activity was measured based on the measurement of absorbance at 550 nm using a plate reader.

[2] = test system: Trichophyton mentagrophytes SM-110; test: Antifungal activity evaluation test, MIC, Trichophyton mentagrophytes SM-110; settings: SM110, 168 h, Sabouraud Dextrose Broth, 30° C., 7 days, visual, read-out: MIC T. men. SM-110
Method: as §1

[3] = test system: Trichophyton rubrum KD-101; test: Antifungal activity evaluation test, MIC, Trichophyton rubrum KD-101; settings: KD101, 168 h, Sabouraud Dextrose Broth, 30° C., 7 days, visual, read-out: MIC T. rub. KD-101
Method: as §1

[4] = test system: Trichophyton rubrum KD-107; test: Antifungal activity evaluation test, MIC, Trichophyton rubrum KD-107; settings: KD107, 168 h, Sabouraud Dextrose Broth, 30° C., 7 days, visual, read-out: MIC T. rub. KD-107
Method: as §1

[5] = test system: Malassezia furfur IFO-0656; test: Antifungal activity evaluation test, MIC by urease activity, Malassezia furfur IFO-0656; settings: IFO0656, 96 h, MU medium, 30° C., day 4 or 5, urease activity of 20% or below, read-out: MIC M. fur. IFO-0656
Method: as §1

[6] = test system: Trichophyton mentagrophytes KD-04; test: Influence of keratin addition on anti-Trichophyton activity; settings: for MIC: Trichophyton mentagrophytes, KD04, 168 h, 30° C., 7 days; for MIC increase by the addition of keratin to medium: Trichophyton, text summary of Table 4
Method: The MIC increase rate by the addition of keratin to a medium was measured by the following procedure. • Test compound solution: A test compound was dissolved in dimethyl sulfoxide (DMSO) at a concentration of 5 mg/mL as a stock solution. Diluting this solution with DMSO, a 2-fold dilution series was prepared. • Test strain: Trichophyton mentagrophytes KD-04 was used. Preparation of Fungal Inoculum: the Above-Mentioned Strain was suspended in 0.05% Tween 80-containing physiological saline, and adjusted to a fungus concentration of 2×10^6 cells/mL using a counting chamber. […] The physiological saline was removed, and the mixture was further washed once with physiological saline (3 mL). The physiological saline was removed, and a test compound solution (10 μL) and Sabouraud Dextrose Broth (Difco) (500 μL) were added to keratin, and the mixture was sufficiently stirred. Then, inoculum (500 μL) of T. mentagrophytes KD-04 was added, and the mixture was cultured at 30° C. for 7 days. As a comparison control, an experiment similar to the above was performed under conditions free of keratin addition.

[7] = T. mentagrophytes KD-04, free of keratin addition, read-out: MIC SDB alone
[8] = T. mentagrophytes KD-04, keratin 50 mg added, read-out: MIC SDB + keratin

Compound	MIC [1] [µg/mL]	MIC [2] [µg/mL]	MIC [3] [µg/mL]	MIC [4] [µg/mL]	MIC [5] [µg/mL]	MIC [6, 7] [µg/mL]	MIC [6, 8] [µg/mL]	MIC increase by the addition of keratin to medium [6] [fold]
CCC(C)(C)c1ccc(CC(C)CN2C[C@@H](C)O[C@@H](C)C2)cc1 (some centres unmarked) [AMF, amorolfine, reference compound]	0.1 (≈ 0.315 µM)	0.05 (≈ 0.157 µM)	0.025 (≈ 0.0787 µM)	0.025 (≈ 0.0787 µM)	0.05 (≈ 0.157 µM)	0.05 (≈ 0.157 µM)	0.39	–
CCc1ccccc1C(=NN(C)C)n1ccnc1 [Compound No. 4, N′-[1-(2-ethylphenyl)-1-imidazol-1-ylmethylidene]-N,N-dimethylhydrazine]	0.39 (≈ 1.61 µM)	0.78 (≈ 3.22 µM)	0.78 (≈ 3.22 µM)	0.78 (≈ 3.22 µM)	> 25	0.39 (≈ 1.61 µM)	0.78	–
CCOc1ccccc1C(=NN(C)C)n1ccnc1 [Compound No. 16, N′-[1-(2-ethoxyphenyl)-1-imidazol-1-ylmethylidene]-N,N-dimethylhydrazine]	0.2 (≈ 0.774 µM)	0.39 (≈ 1.51 µM)	0.2 (≈ 0.774 µM)	0.2 (≈ 0.774 µM)	12.5 (≈ 48.4 µM)	0.39 (≈ 1.51 µM)	0.39	–
CCCOc1ccccc1C(=NN(C)C)n1ccnc1 [Compound No. 17, N′-[1-imidazol-1-yl-1-(2-propoxyphenyl)methylidene]-N,N-dimethylhydrazine]	0.2 (≈ 0.734 µM)	0.39 (≈ 1.43 µM)	0.2 (≈ 0.734 µM)	0.2 (≈ 0.734 µM)	3.13 (≈ 11.5 µM)	0.05 (≈ 0.184 µM)	0.1	–
C=CCOc1ccccc1C(=NN(C)C)n1ccnc1 [Compound No. 20, N′-[1-(2-allyloxyphenyl)-1-imidazol-1-ylmethylidene]-N,N-dimethylhydrazine]	0.2 (≈ 0.74 µM)	0.39 (≈ 1.44 µM)	0.1 (≈ 0.37 µM)	0.1 (≈ 0.37 µM)	12.5 (≈ 46.2 µM)	0.1 (≈ 0.37 µM)	0.2	–
C/C=C\Oc1ccccc1C(=NN(C)C)n1ccnc1 [Compound No. 21, N′-[1-imidazol-1-yl-1-(2-(Z)-propenyloxyphenyl)methylidene]-N,N-dimethylhydrazine]	0.2 (≈ 0.74 µM)	0.39 (≈ 1.44 µM)	0.2 (≈ 0.74 µM)	0.2 (≈ 0.74 µM)	6.25 (≈ 23.1 µM)	0.2 (≈ 0.74 µM)	0.2	–
CCCCOc1ccccc1C(=NN(C)C)n1ccnc1 [Compound No. 23, N′-[1-(2-butoxyphenyl)-1-imidazol-1-ylmethylidene]-N,N-dimethylhydrazine]	0.1 (≈ 0.349 µM)	0.2 (≈ 0.698 µM)	0.1 (≈ 0.349 µM)	0.1 (≈ 0.349 µM)	0.39 (≈ 1.36 µM)	0.1 (≈ 0.349 µM)	0.2	–
CN(C)N=C(c1ccccc1OC(F)(F)F)n1ccnc1 [Compound No. 32, N′-[1-imidazol-1-yl-1-(2-trifluoromethoxyphenyl)methylidene]-N,N-dimethylhydrazine]	0.2 (≈ 0.671 µM)	0.78 (≈ 2.62 µM)	0.39 (≈ 1.31 µM)	0.39 (≈ 1.31 µM)	6.25 (≈ 21 µM)	0.1 (≈ 0.335 µM)	0.2	–
CN(C)N=C(c1ccccc1OC(F)(F)C(F)F)n1ccnc1 [Compound No. 33, N′-[1-imidazol-1-yl-1-[2-(1,1,2,2-tetrafluoroethoxy)phenyl]methylidene]-N,N-dimethylhydrazine]	0.78 (≈ 2.36 µM)	1.56 (≈ 4.72 µM)	0.78 (≈ 2.36 µM)	0.39 (≈ 1.18 µM)	6.25 (≈ 18.9 µM)	0.39 (≈ 1.18 µM)	0.39	–
CN(C)N=C(c1ccccc1OCCc1ccc(N(C)C)cc1)n1ccnc1 [Compound No. 60, N′-[1-imidazol-1-yl-1-[2-(4-dimethylaminophenethyloxy)phenyl]methylidene]-N,N-dimethylhydrazine]	0.2 (≈ 0.53 µM)	0.39 (≈ 1.03 µM)	0.2 (≈ 0.53 µM)	0.1 (≈ 0.265 µM)	0.2 (≈ 0.53 µM)	0.1 (≈ 0.265 µM)	0.2	–
COc1ccc(OCCOc2ccccc2C(=NN(C)C)n2ccnc2)cc1 [Compound No. 69, N′-[1-imidazol-1-yl-1-[2-[2-(4-methoxyphenoxy)ethoxy]phenyl]methylidene]-N,N-dimethylhydrazine]	0.2 (≈ 0.526 µM)	0.39 (≈ 1.03 µM)	0.05 (≈ 0.131 µM)	0.05 (≈ 0.131 µM)	1.56 (≈ 4.1 µM)	0.2 (≈ 0.526 µM)	0.39	–
CCSc1ccccc1C(=NN(C)C)n1ccnc1 [Compound No. 80, N′-[1-(2-ethylthiophenyl)-1-imidazol-1-ylmethylidene]-N,N-dimethylhydrazine]	0.2 (≈ 0.729 µM)	0.78 (≈ 2.84 µM)	0.39 (≈ 1.42 µM)	0.39 (≈ 1.42 µM)	12.5 (≈ 45.6 µM)	0.78 (≈ 2.84 µM)	0.78	–
CCCSc1ccccc1C(=NN(C)C)n1ccnc1 [Compound No. 81, N′-[1-imidazol-1-yl-1-(2-propylthiophenyl)methylidene]-N,N-dimethylhydrazine]	0.2 (≈ 0.693 µM)	0.39 (≈ 1.35 µM)	0.39 (≈ 1.35 µM)	0.2 (≈ 0.693 µM)	3.13 (≈ 10.9 µM)	0.39 (≈ 1.35 µM)	0.39	–
CN(C)N=C(c1cccn1Cc1ccccc1)n1ccnc1 [Compound No. 105, N′-[1-(1-benzylpyrrol-2-yl)-1-imidazol-1-ylmethylidene]-N,N-dimethylhydrazine]	0.2 (≈ 0.682 µM)	0.39 (≈ 1.33 µM)	0.2 (≈ 0.682 µM)	0.2 (≈ 0.682 µM)	25 (≈ 85.2 µM)	0.39 (≈ 1.33 µM)	0.78	–
CCC(C)n1ncn(-c2ccc(N3CCN(c4ccc(OCC5COC(Cn6cncn6)(c6ccc(Cl)cc6Cl)O5)cc4)CC3)cc2)c1=O (centres unmarked) [ITCZ, itraconazole, reference compound]	0.1 (≈ 0.142 µM)	0.2 (≈ 0.283 µM)	0.1 (≈ 0.142 µM)	0.05 (≈ 0.0709 µM)	0.05 (≈ 0.0709 µM)	0.05 (≈ 0.0709 µM)	25	–
CCC(C)(C)c1ccc(CC(C)CN2C[C@@H](C)O[C@@H](C)C2)cc1 (some centres unmarked) [amorolfine, reference compound]	–	–	–	–	–	–	–	8
CCC(C)n1ncn(-c2ccc(N3CCN(c4ccc(OCC5COC(Cn6cncn6)(c6ccc(Cl)cc6Cl)O5)cc4)CC3)cc2)c1=O (centres unmarked) [itraconazole, reference compound]	–	–	–	–	–	–	–	512
